Several values for one entry are separate records, joined by “and”; a condition that tells them apart may be missing. Equal values may be shown once. Inconclusive results and toxic doses are left out.

This assay concerns CD2F1 mice, L1210 leukemia ip, survival T/C. Description: NCI In Vivo Anticancer Drug Screen. Data for tumor model L1210 Leukemia (intraperitoneal) in CD2F1 (CDF1) mice. The note with it: higher = longer survival. The procedure, abridged:
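Ratio T/C, where T is the treated-group value and C the vehicle-dosed control value, from mice implanted with a transplantable tumor.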

[1] abbreviates: endpoint: mean survival time, dose: 100.0 mg/kg/injection, schedule: Q04DX003 (ip), vehicle: saline with Tween-80.
The mark [2] stands for this setting: endpoint: mean survival time, dose: 200.0 mg/kg/injection, schedule: Q04DX003 (ip), vehicle: saline with Tween-80.
[3] abbreviates: endpoint: mean survival time, dose: 400.0 mg/kg/injection, schedule: Q04DX003 (ip), vehicle: saline with Tween-80.
[4] abbreviates: endpoint: mean survival time, dose: 100.0 mg/kg/injection, schedule: Q01DX009 (ip), vehicle: saline with Tween-80.
The mark [5] stands for this setting: endpoint: mean survival time, dose: 200.0 mg/kg/injection, schedule: Q01DX009 (ip), vehicle: saline with Tween-80.
Where [6] appears, read: endpoint: mean survival time, dose: 400.0 mg/kg/injection, schedule: Q01DX009 (ip), vehicle: saline with Tween-80.
Where [7] appears, read: endpoint: mean survival time, dose: 100.0 mg/kg/injection, schedule: Q01DX001 (ip), vehicle: saline.
Setting [8] is: endpoint: mean survival time, dose: 200.0 mg/kg/injection, schedule: Q01DX001 (ip), vehicle: saline.
Where [9] appears, read: endpoint: mean survival time, dose: 400.0 mg/kg/injection, schedule: Q01DX001 (ip), vehicle: saline.
Setting [10] is: endpoint: mean survival time, dose: 75.0 mg/kg/injection, schedule: Q01DX001 (ip), vehicle: saline.

Turning to `C/C=C(\C)C(=O)N/N=C\c1cc(Cl)cc(Cl)c1O`, the T/C runs as follows: (endpoint: mean survival time, dose: 12.5 mg/kg/injection, schedule: Q01DX009 (ip), vehicle: olive oil, sesame oil, peanut oil) 100 % of control; (endpoint: mean survival time, dose: 25.0 mg/kg/injection, schedule: Q01DX009 (ip), vehicle: olive oil, sesame oil, peanut oil) 96 % of control; (endpoint: mean survival time, dose: 50.0 mg/kg/injection, schedule: Q01DX009 (ip), vehicle: olive oil, sesame oil, peanut oil) 94 % of control; (endpoint: mean survival time, dose: 100.0 mg/kg/injection, schedule: Q01DX009 (ip), vehicle: olive oil, sesame oil, peanut oil) 98 % of control; (endpoint: mean survival time, dose: 200.0 mg/kg/injection, schedule: Q01DX009 (ip), vehicle: olive oil, sesame oil, peanut oil) 98 % of control; (endpoint: mean survival time, dose: 400.0 mg/kg/injection, schedule: Q01DX009 (ip), vehicle: olive oil, sesame oil, peanut oil) 100 % of control.

As for `COc1cc2cnccc2cc1O`, the T/C was 95 % of control (endpoint: mean survival time, dose: 25.0 mg/kg/injection, schedule: Q01DX009 (ip), vehicle: water); 101 % of control (endpoint: mean survival time, dose: 50.0 mg/kg/injection, schedule: Q01DX009 (ip), vehicle: water); 96 % of control (endpoint: mean survival time, dose: 100.0 mg/kg/injection, schedule: Q01DX009 (ip), vehicle: water).

With `Nc1cc(N)c2[nH]cnc2n1`, the T/C is 104 % of control (endpoint: mean survival time, dose: 100.0 mg/kg/injection, schedule: Q01DX001 (ip), vehicle: other); 97 % of control (endpoint: mean survival time, dose: 200.0 mg/kg/injection, schedule: Q01DX001 (ip), vehicle: other); 98 % of control (endpoint: mean survival time, dose: 400.0 mg/kg/injection, schedule: Q01DX001 (ip), vehicle: other).

Turning to `COC(=O)Nc1ccc(NC(=O)c2cscn2)c(NC(=O)OC)n1`, the T/C runs as follows: under setting [1], 98 % of control; under setting [2], 91 % of control.

Turning to `Nc1ncnc2c1nc(NCc1ccccc1)n2C1OC(CO)C(O)C1O` (configuration not stated), the T/C runs as follows: (endpoint: mean survival time, dose: 12.5 mg/kg/injection, schedule: Q01DX005 (ip), vehicle: distilled water + Tween-80) 93 % of control; (endpoint: mean survival time, dose: 25.0 mg/kg/injection, schedule: Q01DX005 (ip), vehicle: distilled water + Tween-80) 100 % of control and 95 % of control; (endpoint: mean survival time, dose: 50.0 mg/kg/injection, schedule: Q01DX005 (ip), vehicle: distilled water + Tween-80) 92 % of control and 101 % of control; (endpoint: mean survival time, dose: 100.0 mg/kg/injection, schedule: Q01DX005 (ip), vehicle: distilled water + Tween-80) 99 % of control and 93 % of control; (endpoint: mean survival time, dose: 200.0 mg/kg/injection, schedule: Q01DX005 (ip), vehicle: distilled water + Tween-80) 99 % of control and 100 % of control; (endpoint: mean survival time, dose: 400.0 mg/kg/injection, schedule: Q01DX005 (ip), vehicle: distilled water + Tween-80) 89 % of control.

In the case of `CCCC[P+](C)(CC[P+](C)(c1ccccc1)c1ccccc1)c1ccccc1` (configuration not stated), the T/C (endpoint: mean survival time, dose: 6.25 mg/kg/injection, schedule: Q04DX002 (ip), vehicle: saline) is 104 % of control and the T/C (endpoint: mean survival time, dose: 12.5 mg/kg/injection, schedule: Q04DX002 (ip), vehicle: saline) is 89 % of control.

With `CN(Cc1cnc2nc(N)nc(N)c2c1)c1ccc(C(=O)NC(CCC(=O)O)C(=O)O)cc1` (configuration not stated), the T/C reads like this: (endpoint: median survival time, dose: 4.0 mg/kg/injection, schedule: Q01DX005 (ip), vehicle: other) 158 % of control; (endpoint: median survival time, dose: 8.0 mg/kg/injection, schedule: Q01DX005 (ip), vehicle: other) 158 % of control.

`CC1(C)COCN1COCCOCN1COCC1(C)C`: the T/C (endpoint: mean survival time, dose: 6.25 mg/kg/injection, schedule: Q01DX009 (ip), vehicle: saline) is 97 % of control and 98 % of control; the T/C (endpoint: mean survival time, dose: 12.5 mg/kg/injection, schedule: Q01DX009 (ip), vehicle: saline) is 100 % of control and 101 % of control; the T/C (endpoint: mean survival time, dose: 25.0 mg/kg/injection, schedule: Q01DX009 (ip), vehicle: saline) was 105 % of control and 107 % of control; the T/C (endpoint: mean survival time, dose: 50.0 mg/kg/injection, schedule: Q01DX009 (ip), vehicle: saline) was 106 % of control and 107 % of control; the T/C (endpoint: mean survival time, dose: 100.0 mg/kg/injection, schedule: Q01DX009 (ip), vehicle: saline) is 95 % of control and 105 % of control.

On to `CS(=O)(=O)Nc1ccc(NS(C)(=O)=O)cc1`, for which the T/C runs as follows: under setting [1], 98 % of control; under setting [2], 102 % of control; under setting [3], 97 % of control.

`CCCCCCNC(=O)Nc1cccc(Cl)c1C`: the T/C under setting [4] is 94 % of control; the T/C under setting [1] was 91 % of control; the T/C under setting [5] was 94 % of control; the T/C under setting [6] is 103 % of control; the T/C under setting [3] was 92 % of control.

On to `Cc1c2c(c(O)c3c(O)cccc13)C(=O)C1(O)C(O)=C(C(N)=O)C(=O)CC1C2` (configuration not stated), for which the T/C by setting is: (endpoint: mean survival time, dose: 75.0 mg/kg/injection, schedule: Q01DX001 (ip), vehicle: other) 92 % of control; (endpoint: mean survival time, dose: 150.0 mg/kg/injection, schedule: Q01DX001 (ip), vehicle: other) 94 % of control; (endpoint: mean survival time, dose: 300.0 mg/kg/injection, schedule: Q01DX001 (ip), vehicle: other) 102 % of control.

As to `CCN(CC)Cc1cc(Nc2ncnc3scc(C)c23)ccc1O`, the T/C runs as follows: under setting [1], 100 % of control; under setting [2], 97 % of control; under setting [3], 100 % of control.

Regarding `NC(=O)Cc1c[nH]c2cc(O)ccc12`, the T/C is 93 % of control under setting [4]; 97 % of control under setting [1]; 95 % of control under setting [5]; 97 % of control under setting [2]; 100 % of control under setting [6]; 95 % of control under setting [3].

As to `CC(=O)OCCC/C(=C\c1ccc(Cl)cc1)[N+](=O)[O-]`, the T/C under setting [7] is 100 % of control, the T/C under setting [8] is 102 % of control and the T/C under setting [9] was 98 % of control.

For the compound `CO/N=C(/c1ccccc1)c1cccc[n+]1C`, the T/C (endpoint: mean survival time, dose: 9.4 mg/kg/injection, schedule: Q01DX009 (ip), vehicle: saline) was 107 % of control; the T/C (endpoint: mean survival time, dose: 18.8 mg/kg/injection, schedule: Q01DX009 (ip), vehicle: saline) is 97 % of control; the T/C (endpoint: mean survival time, dose: 37.5 mg/kg/injection, schedule: Q01DX009 (ip), vehicle: saline) is 98 % of control; the T/C under setting [10] was 97 % of control.

Turning to `O=C(O)CSc1cc(Cl)ccc1Cl`, the T/C is 95 % of control (endpoint: mean survival time, dose: 12.5 mg/kg/injection, schedule: Q04DX003 (ip), vehicle: Klucel (hydroxypropylcellulose) (HPC)); 98 % of control (endpoint: mean survival time, dose: 25.0 mg/kg/injection, schedule: Q04DX003 (ip), vehicle: Klucel (hydroxypropylcellulose) (HPC)); 100 % of control (endpoint: mean survival time, dose: 50.0 mg/kg/injection, schedule: Q04DX003 (ip), vehicle: Klucel (hydroxypropylcellulose) (HPC)); 100 % of control (endpoint: mean survival time, dose: 100.0 mg/kg/injection, schedule: Q04DX003 (ip), vehicle: Klucel (hydroxypropylcellulose) (HPC)).

With `O=CC(Br)C(Br)c1ccccc1` (configuration not stated), the T/C was 98 % of control (endpoint: mean survival time, dose: 6.25 mg/kg/injection, schedule: Q01DX009 (ip), vehicle: saline with Tween-80); 113 % of control (endpoint: mean survival time, dose: 6.25 mg/kg/injection, schedule: Q04DX003 (ip), vehicle: saline with Tween-80); 98 % of control (endpoint: mean survival time, dose: 12.5 mg/kg/injection, schedule: Q01DX009 (ip), vehicle: saline with Tween-80); 98 % of control (endpoint: mean survival time, dose: 12.5 mg/kg/injection, schedule: Q04DX003 (ip), vehicle: saline with Tween-80); 104 % of control (endpoint: mean survival time, dose: 25.0 mg/kg/injection, schedule: Q01DX009 (ip), vehicle: saline with Tween-80); 102 % of control and 104 % of control (endpoint: mean survival time, dose: 25.0 mg/kg/injection, schedule: Q04DX003 (ip), vehicle: saline with Tween-80). Under “endpoint: mean survival time, dose: 50.0 mg/kg/injection, schedule: Q01DX009 (ip), vehicle: other”, the T/C is 111 % of control.

With `CCCCCOCC`, the T/C is 102 % of control (endpoint: mean survival time, dose: 100.0 mg/kg/injection, schedule: Q04DX002 (ip), vehicle: saline with Tween-80); 98 % of control (endpoint: mean survival time, dose: 200.0 mg/kg/injection, schedule: Q04DX002 (ip), vehicle: saline with Tween-80); 98 % of control (endpoint: mean survival time, dose: 400.0 mg/kg/injection, schedule: Q04DX002 (ip), vehicle: saline with Tween-80).

`CC(=O)OC1CCC2(C)C(CCC3C2CCC2(C)C(c4cccc(=O)o4)CCC32)C1` (configuration not stated): the T/C is, setting by setting: under setting [7], 101 % of control; under setting [8], 97 % of control; under setting [9], 95 % of control.

Take `O=S(Nc1ccccc1)Nc1ccccc1`: the T/C reads like this: under setting [4], 95 % of control; under setting [1], 97 % of control; under setting [2], 94 % of control; under setting [3], 97 % of control.

With `O=CN(/C=C1\CC(OO)NC1=O)Cc1ccccc1` (configuration not stated), the T/C was 102 % of control under setting [10] and 108 % of control (endpoint: mean survival time, dose: 150.0 mg/kg/injection, schedule: Q01DX001 (ip), vehicle: saline).

On to `OCC1OCOC2COCOC12` (configuration not stated), for which the T/C was 95 % of control under setting [1], 98 % of control under setting [2] and 101 % of control under setting [3].
